Tests used:
[1] = system: IκBα phosphorylation (IKK); experiment: Detection of IκBα phosphorylation: translocation of IκBα-mRFP with anti-phospho-IκBα (Ser32)-MNPs in HeLa cells; type: cell-based; conditions: HeLa cells treated with various chemical compounds and growth factors
Caspase-3 = target: T1, Caspase-3 (Homo sapiens, UniProt P42574); experiment: Magnetic-field translocation of mRFP-Caspase3 by DEVD-MNPs in HeLa cells; type: cell-based; conditions: EGFP expressing cells as negative control showed no motion
T1 construct: mRFP (N); expressed in transfected cells; host or cells: HeLa
T1 sequence (P42574 29-277): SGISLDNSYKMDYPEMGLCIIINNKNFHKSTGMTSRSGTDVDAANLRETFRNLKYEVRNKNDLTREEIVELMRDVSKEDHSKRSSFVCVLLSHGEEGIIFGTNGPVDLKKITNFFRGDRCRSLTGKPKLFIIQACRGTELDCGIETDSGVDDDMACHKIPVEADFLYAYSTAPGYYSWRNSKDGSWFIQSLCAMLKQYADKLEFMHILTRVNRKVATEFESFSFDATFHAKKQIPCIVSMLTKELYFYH
Description: A DEVD-MNPs complex was obtained by reacting a Streptavidin nanoparticle, caspase-3 inhibitor II (DEVD)-biotin conjugate (CALBIOCHEM) and TATHA2-biotin at 40 C for 1 hr while agitating the reaction mixture. Unbound ligands were removed from the reaction mixture by purifying the complex using a paramagnet. After introducing mRFP-Caspase3 or EGFP expressing plasmid into a HeLa cell (ATCC), the cell was incubated. The DEVD-MNPs were introduced into the cell, and a magnetic field (M.F.) was externally applied to the cell using a paramagnet or electromagnet. The confocal images were captured using a confocal laser microscope (Carl Zeiss) for the live cells while applying magnetic field as well as not applying magnetic field.

Row | Substance | translocation of the IκBα-mRFP fusion protein under the magnetic field (interaction activator screening) [1] | localization of cells expressing mRFP-Caspase3 by external magnetic force (Caspase-3)
1 | TNF-α | observed to translocate the IκBα-mRFP fusion protein | –
2 | DEVD-MNPs: Streptavidin nanoparticle reacted with caspase-3 inhibitor II (DEVD)-biotin conjugate and TATHA2-biotin | – | only the cells (indicated with red arrows) expressing mRFP-Caspase3 were localized

From patent publication US20080242557A1, “System For Detecting Molecular Interactions” (CGK CO., LTD., priority 2004, published 2008)
